Reference: EPA's ToxRefDB 2

Columns and labels:
rat [1] = conditions: Sub-acute repeat dose toxicity, Oral, Gavage/Intubation, dose end: 7 day, group: systemic
primate [2] = conditions: Sub-acute repeat dose toxicity; Oral; Gavage/Intubation; dose end: 7 day; group: systemic; systemic / in life observation / clinical signs / abnormal feces + systemic / hematology / erythrocyte (rbc) count differential / …
primate [3] = conditions: Sub-acute repeat dose toxicity; Oral; Gavage/Intubation; dose end: 14 day; group: systemic; systemic / clinical chemistry / [other] / [other] + systemic / clinical chemistry / testosterone / testosterone + systemic / hematology / …
primate [4] = conditions: Subchronic oral toxicity in nonrodent, Gavage/Intubation, dose end: 42 day, group: systemic, systemic / clinical chemistry / [other] / [other] + systemic / clinical chemistry / cytochrome p450, nos / cytochrome p450, nos + systemic…
rat [5] = conditions: Sub-acute repeat dose toxicity; Oral; Gavage/Intubation; dose end: 14 day; group: systemic; systemic / clinical chemistry / protein / protein + systemic / hematology / erythrocyte (rbc) count differential / erythrocyte (rbc) + …
rat [6] = conditions: Multigenerational reproductive toxicity study, other, Oral, Feed, dose end: 2 generation
rat [7] = conditions: Subchronic oral toxicity in rodents, sprague dawley, Feed, dose end: 90 day, group: systemic
dog [8] = conditions: Subchronic oral toxicity in nonrodent, beagle, Feed, dose end: 90 day, group: systemic
mouse [9] = conditions: Carcinogenicity, cd1, Oral, Feed, dose end: 18 month, group: systemic
rat [10] = conditions: Prenatal developmental toxicity study, other, Oral, Gavage/Intubation, dose end: 16 GD
dog [11] = conditions: Chronic toxicity, beagle, Oral, Feed, dose end: 52 week, group: systemic
mouse [12] = conditions: Subchronic oral toxicity in rodents, cd1, Feed, dose end: 90 day, group: systemic
dog [13] = conditions: Sub-acute repeat dose toxicity; beagle; Oral; Gavage/Intubation; dose end: 5 day; group: systemic; systemic / in life observation / clinical signs / emesis
primate [14] = conditions: Sub-acute repeat dose toxicity; Oral; Gavage/Intubation; dose end: 35 day; group: systemic; systemic / in life observation / clinical signs / emesis
primate [15] = conditions: Sub-acute repeat dose toxicity; Oral; Gavage/Intubation; dose end: 5 day; group: systemic; systemic / clinical chemistry / alanine aminotransferase (alt/sgpt) / alanine aminotransferase (alt/sgpt) + systemic / clinical chemistry / …
primate [16] = conditions: Sub-acute repeat dose toxicity, Oral, Gavage/Intubation, dose end: 15 day, group: systemic
rat [17] = conditions: Sub-acute repeat dose toxicity, sprague dawley, Oral, Gavage/Intubation, dose end: 28 day, group: systemic
rat [18] = conditions: Sub-acute repeat dose toxicity, Oral, Gavage/Intubation, dose end: 14 day, group: systemic
primate [19] = conditions: Sub-acute repeat dose toxicity; Oral; Gavage/Intubation; dose end: 8 day; group: systemic; systemic / hematology / neutrophils / neutrophils + systemic / in life observation / body weight / body weight + systemic / in life …
rabbit = conditions: Sub-acute repeat dose toxicity, Oral, Gavage/Intubation, dose end: 5 day, group: systemic
[20] = systemic / clinical chemistry / protein / protein + systemic / hematology / neutrophils / neutrophils + systemic / in life observation / …
[21] = systemic / in life observation / food consumption / food consumption + systemic / clinical chemistry / cytochrome p450, nos / cytochrome …
[22] = group: offspring, developmental / offspring survival late / lactation index / lactation index + developmental / offspring survival late / viability index / …
[23] = group: parental, systemic / hematology / methemoglobin / methemoglobin
[24] = group: reproductive, reproductive / reproductive performance / gestational length / gestational length + reproductive / reproductive performance / implantations…
[25] = systemic / hematology / erythrocyte (rbc) count differential / erythrocyte (rbc) + systemic / hematology / hematocrit (hct) / hematocrit (…
[26] = systemic / pathology microscopic / liver / pigmentation
[27] = group: developmental, developmental / developmental malformation / bone / malformation, total + developmental / developmental malformation / bone / misshapen + …
[28] = group: maternal, reproductive / reproductive performance / resorptions / resorptions + reproductive / reproductive performance / estrous cycle / corpora …
[29] = systemic / clinical chemistry / alanine aminotransferase (alt/sgpt) / alanine aminotransferase (alt/sgpt) + systemic / pathology microscopic…
[30] = systemic / hematology / hemoglobin (hgb) / hemoglobin (hgb) + systemic / in life observation / body weight / body weight gain + systemic / …
[31] = systemic / clinical chemistry / alanine aminotransferase (alt/sgpt) / alanine aminotransferase (alt/sgpt) + systemic / clinical chemistry / …
[32] = systemic / in life observation / body weight / body weight + systemic / in life observation / clinical signs / abnormal feces + systemic / …
[33] = systemic / hematology / fibrinogen / fibrinogen + systemic / hematology / leukocyte (wbc) count differential / leukocyte (wbc) + systemic / …
[34] = systemic / pathology microscopic / blood / vasculitis + systemic / pathology microscopic / kidney / degeneration + systemic / pathology …
[35] = systemic / in life observation / clinical signs / nasal discharge + systemic / in life observation / clinical signs / salivation
[36] = systemic / pathology gross / intestine large / dilatation + systemic / pathology gross / intestine small / dilatation + systemic / pathology…
[37] = systemic / in life observation / clinical signs / [other] + systemic / in life observation / clinical signs / abnormal feces + systemic / in…
[38] = systemic / in life observation / clinical signs / abnormal feces + systemic / in life observation / clinical signs / general pallor + …

## Cc1oc(-c2ccccc2)nc1CCOc1cccc2c1ccn2CCC(=O)O
Rat [1]; [20]
  LOAEL: > 2000 mg/kg/day
  NOAEL: ≥ 2000 mg/kg/day
Rat [1]; [21]
  LEL: 100 mg/kg/day
  NEL: < 100 mg/kg/day
Primate [2]
  LEL: 100 mg/kg/day
  LOAEL: > 2000 mg/kg/day
  NEL: < 100 mg/kg/day
  NOAEL: ≥ 2000 mg/kg/day
Primate [3]
  LEL: 100 mg/kg/day
  LOAEL: > 2000 mg/kg/day
  NEL: < 100 mg/kg/day
  NOAEL: ≥ 2000 mg/kg/day
Primate [4]
  LEL: 100 mg/kg/day
  LOAEL: > 100 mg/kg/day
  NEL: < 100 mg/kg/day
  NOAEL: ≥ 100 mg/kg/day
Rat [5]
  LEL: 10 mg/kg/day
  LOAEL: > 1000 mg/kg/day
  NEL: < 10 mg/kg/day
  NOAEL: ≥ 1000 mg/kg/day

## C#CCOc1cc(-n2nc3n(c2=O)CCCC3)c(Cl)cc1Cl [Azafenidin]
Rat [6]; [22]
  LEL: 14.5 mg/kg/day
  LOAEL: 14.5 mg/kg/day
  NEL: 2.33 mg/kg/day
  NOAEL: 2.33 mg/kg/day
Rat [6]; [23]
  LEL: 0.389 mg/kg/day
  NEL: < 0.389 mg/kg/day
Rat [6]; group: parental, systemic / in life observation / food consumption / food consumption + systemic / in life observation / mortality / mortality
  LOAEL: 78.6 mg/kg/day
Rat [6]; group: parental, systemic / in life observation / food consumption / food consumption + systemic / in life observation / mortality / mortality + systemic / …
  NOAEL: 14.4 mg/kg/day
Rat [6]; [24]
  LEL: 14.4 mg/kg/day
  LOAEL: 14.4 mg/kg/day
  NEL: 2.31 mg/kg/day
  NOAEL: 2.31 mg/kg/day
Rat [7]; [25]
  LOAEL: 71.9 mg/kg/day
  NEL: 4.02 mg/kg/day
  NOAEL: 24.2 mg/kg/day
Rat [7]; systemic / organ weight / kidney / relative to body weight
  LEL: 24.2 mg/kg/day
Dog [8]; systemic / pathology microscopic / liver / hypertrophy + systemic / pathology microscopic / liver / pigmentation
  LOAEL: 2.02 mg/kg/day
Dog [8]; systemic / pathology microscopic / liver / hypertrophy + systemic / pathology microscopic / liver / pigmentation + systemic / clinical …
  NOAEL: 0.34 mg/kg/day
Dog [8]; [26]
  LEL: 0.34 mg/kg/day
  NEL: < 0.34 mg/kg/day
Mouse [9]; systemic / pathology gross / full gross necropsy / proliferation
  NEL: 4 mg/kg/day
Mouse [9]; systemic / pathology microscopic / liver / adenoma + systemic / pathology microscopic / liver / pigmentation
  LOAEL: 39.8 mg/kg/day
Mouse [9]; systemic / pathology microscopic / liver / adenoma + systemic / pathology microscopic / liver / pigmentation + systemic / hematology / mean …
  NOAEL: 4 mg/kg/day
Mouse [9]; systemic / pathology microscopic / liver / adenoma + systemic / pathology microscopic / liver / pigmentation + systemic / pathology gross / …
  LEL: 39.8 mg/kg/day
Rat [10]; [27]
  LEL: 24 mg/kg/day
  LOAEL: 24 mg/kg/day
  NEL: 16 mg/kg/day
  NOAEL: 16 mg/kg/day
Rat [10]; group: maternal, reproductive / reproductive performance / estrous cycle / corpora lutea
  LEL: 16 mg/kg/day
Rat [10]; group: maternal, reproductive / reproductive performance / resorptions / resorptions
  LOAEL: 24 mg/kg/day
Rat [10]; [28]
  NEL: 8 mg/kg/day
  NOAEL: 16 mg/kg/day
Dog [11]; [29]
  LOAEL: 0.86 mg/kg/day
  NOAEL: 0.3 mg/kg/day
Dog [11]; systemic / pathology microscopic / liver / cytoplasmic alteration
  LEL: 0.3 mg/kg/day
Dog [11]; systemic / pathology microscopic / liver / cytoplasmic alteration + systemic / clinical chemistry / alanine aminotransferase (alt/sgpt) / …
  NEL: 0.16 mg/kg/day
Mouse [12]; [30]
  LOAEL: 144 mg/kg/day
  NEL: 7.94 mg/kg/day
  NOAEL: 47.2 mg/kg/day
Mouse [12]; [26]
  LEL: 47.2 mg/kg/day

## CC(C)(O)c1ccc(CNC(=O)c2cccnc2Oc2ccc(F)cc2)cc1
Dog [13]
  LEL: 10 mg/kg/day
  LOAEL: > 10 mg/kg/day
  NEL: < 10 mg/kg/day
  NOAEL: ≥ 10 mg/kg/day
Primate [14]
  LEL: 1 mg/kg/day
  LOAEL: > 1 mg/kg/day
  NEL: < 1 mg/kg/day
  NOAEL: ≥ 1 mg/kg/day
Primate [15]
  LEL: 20 mg/kg/day
  LOAEL: > 20 mg/kg/day
  NEL: < 20 mg/kg/day
  NOAEL: ≥ 20 mg/kg/day
Primate [16]; [31]
  LOAEL: > 20 mg/kg/day
  NOAEL: ≥ 20 mg/kg/day
Primate [16]; [32]
  LEL: 3 mg/kg/day
  NEL: < 3 mg/kg/day
Rat [17]; [33]
  LOAEL: > 20 mg/kg/day
  NOAEL: ≥ 20 mg/kg/day
Rat [17]; [34]
  LEL: 1 mg/kg/day
  NEL: < 1 mg/kg/day
Rat [18]; [35]
  LEL: 3 mg/kg/day
  NEL: < 3 mg/kg/day
Rat [18]; [36]
  LOAEL: > 30 mg/kg/day
  NOAEL: ≥ 30 mg/kg/day
Primate [19]
  LEL: 1 mg/kg/day
  LOAEL: > 1 mg/kg/day
  NEL: < 1 mg/kg/day
  NOAEL: ≥ 1 mg/kg/day
rabbit; [37]
  LOAEL: > 20 mg/kg/day
  NOAEL: ≥ 20 mg/kg/day
rabbit; [38]
  LEL: 1 mg/kg/day
  NEL: < 1 mg/kg/day
